Laboratory results from patent publication EP0043274A2, “Antithrombotic treatment” (priority 1980, dated 1982).
Values joined by “and” are separate entries in the source; they are usually repeats but may differ in a detail not shown here. Equal values may be shown once.

Legend:
FIBRINOGEN = target: T1, FIBRINOGEN (Homo sapiens, UniProt P02671+P02675+P02679); assay: Coagulation factor assay (Biggs): fibrinogen; format: biochemical; conditions: for FIBRINOGEN (mg%): U.S.P. grade, control 218
T1 construct: from tissue; host or cells: human plasma
T1 sequence (P02671 20-629 limits assumed): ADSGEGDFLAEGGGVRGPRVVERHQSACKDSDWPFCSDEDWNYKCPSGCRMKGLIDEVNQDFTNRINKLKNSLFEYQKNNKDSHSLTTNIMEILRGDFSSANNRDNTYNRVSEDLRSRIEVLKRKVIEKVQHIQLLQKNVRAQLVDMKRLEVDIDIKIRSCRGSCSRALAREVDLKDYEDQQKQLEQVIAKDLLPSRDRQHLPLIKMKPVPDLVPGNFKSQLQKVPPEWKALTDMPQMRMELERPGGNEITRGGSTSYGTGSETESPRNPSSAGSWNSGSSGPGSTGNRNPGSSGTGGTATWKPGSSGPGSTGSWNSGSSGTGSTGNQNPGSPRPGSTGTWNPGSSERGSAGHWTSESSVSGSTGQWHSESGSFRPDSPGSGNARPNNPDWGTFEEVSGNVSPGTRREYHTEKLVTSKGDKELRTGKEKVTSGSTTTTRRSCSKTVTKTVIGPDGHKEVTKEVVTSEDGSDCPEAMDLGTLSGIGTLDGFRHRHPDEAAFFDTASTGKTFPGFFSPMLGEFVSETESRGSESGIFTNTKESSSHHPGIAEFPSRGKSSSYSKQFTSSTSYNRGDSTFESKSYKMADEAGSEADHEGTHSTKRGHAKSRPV
T1 sequence (P02675 31-491): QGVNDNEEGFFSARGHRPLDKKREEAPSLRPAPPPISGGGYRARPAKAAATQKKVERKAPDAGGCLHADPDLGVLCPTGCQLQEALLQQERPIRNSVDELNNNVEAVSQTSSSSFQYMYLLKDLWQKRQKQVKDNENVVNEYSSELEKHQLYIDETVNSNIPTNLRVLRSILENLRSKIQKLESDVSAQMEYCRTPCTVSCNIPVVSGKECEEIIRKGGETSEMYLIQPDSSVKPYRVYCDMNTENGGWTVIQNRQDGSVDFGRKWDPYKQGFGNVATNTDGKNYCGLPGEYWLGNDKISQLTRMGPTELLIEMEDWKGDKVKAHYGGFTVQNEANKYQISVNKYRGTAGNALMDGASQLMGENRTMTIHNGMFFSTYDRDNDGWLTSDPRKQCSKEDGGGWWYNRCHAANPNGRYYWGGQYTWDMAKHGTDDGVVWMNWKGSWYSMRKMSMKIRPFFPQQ
T1 sequence (P02679 27-453): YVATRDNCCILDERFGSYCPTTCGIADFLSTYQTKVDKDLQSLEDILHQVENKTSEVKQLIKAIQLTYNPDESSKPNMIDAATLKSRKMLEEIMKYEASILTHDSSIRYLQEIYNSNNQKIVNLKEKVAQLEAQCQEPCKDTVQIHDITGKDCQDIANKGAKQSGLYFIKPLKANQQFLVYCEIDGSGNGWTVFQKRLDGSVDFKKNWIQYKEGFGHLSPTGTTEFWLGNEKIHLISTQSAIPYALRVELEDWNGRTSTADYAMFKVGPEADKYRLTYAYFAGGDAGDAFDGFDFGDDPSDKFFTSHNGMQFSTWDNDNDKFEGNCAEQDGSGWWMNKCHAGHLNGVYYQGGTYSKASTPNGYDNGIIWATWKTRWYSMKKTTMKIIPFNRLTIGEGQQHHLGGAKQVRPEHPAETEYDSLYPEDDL
Procedure: (§1) The effect of U.S.P. grade sodium bisulfite on blood coagulation factors is evaluated by standard procedures (Biggs) and the results are shown in Table III below.
References for PT, PTT, and assays of all the coagulation factors can be found in a standard textbook, entitled "Human Blood Coagulation, Haemostasis and Thrombosis", edited by Rosemary Biggs, published by Blackwell Scientific Publications, Oxford, England (2nd edition), pages 670-705, 1976.

[1] = test system: platelet thrombus formation on damaged aortic wall; assay: Indium 111 platelet labeling technique in rabbits (platelet accumulation at vessel wall); format: in vivo
Procedure: In medicine, for example, arterial thrombosis is diagnosable by clinical manifestations, by arteriography, and recently, by an Indium 111 platelet labeling technique (see, for example, the article entitled "Differential , Effects of Two Doses of Aspirin on Platelet-Vessel Wall Interaction In Vivo" by K.K. Wu et al being published in the Journal of Clinical Investigtion, August, 1981).
Sodium bisulfite is evaluated under in vivo conditions as an antithrombotic agent using the anti-indium 111 platelet labeling technique in rabbits (see the Wu et al article above cited). The material was administered by intravenous injection (72.80 milligram per kilogram of animal body weight). […]

platelet rich plasma = assay: Platelet aggregation in platelet rich plasma, ADP stimulus (Example 25); format: cell-based; conditions: plasma first treated with the compound
Text: Plasma was centrifuged at 1000 r.p.m. (200 g) to prepare a platelet rich plasma. Using adosine diphosphate (ADP) as a stimulous, rapid aggregation of platelets in the plasma was efected. On the other hand, when such plasma is first treatd with (a) tetramethyl ammonium sulfite, (b) tetramethyl ammonium bisulfite, and then (c) tetrabutyl

human plasma = assay: Blood coagulation evaluation by standard procedures (Biggs), overall result; format: biochemical; conditions: 5 mg/ml
Procedure: as §1
When this procedure is repeated using human plasma,
References for PT, PTT, and assays in vitro of all the coagulation factors can be found in a standard textbook, entitled "Human Blod Coagulation, Haemostatis and Thrombosis", edited by Rosemary Biggs, published by Blackwell Scientific Publications, Oxford, England (2nd edition), pages 670-705, 1976.

RATS = assay: Rats fed bait containing 0.5% sodium bisulfite; format: in vivo
Text: Five rats, each in a separate cage, were given a bait containing 0.5 percent by weight of sodium bisulfite. The bait consisted of cracked grains (wheat, corn, millet, and corn meal). The amounts of bait eaten are summarized for an eleven day period.

[2] = Human use, oral drops with meals (case histories); format: in vivo
Text: To evaluate the effect of sodium bisulfite in human use (this agent being known to be safe for human consumption), certain patients received this agent. The case history and observations are summarized individually below.
In each case, each patient is provided with such a bottle of Solution D, unless otherwise noted, and is instructed to dose himself (or herself, as the case may be) from the bottle so provided at the rate of seven drops to be taken orally with each of his (her) three daily meals. When the contents of one such bottle is thus so gradually consumed by an individual patient, another is provided to him (her).

rat plasma = assay: Blood coagulation tests (PT, PTT, coagulation factors) in vitro; format: biochemical
Text: The alkali metalbisulfites, sodium and potassium, and ammonium bisulfite are found to prolong PT and PTT in a dose-related fashion.

Compound: CCN(CC)CC.O=S(O)O [TRIETHYL AMINE BISULFITE, triethyl amine bisulfite]
- Fibrinogen (%) (FIBRINOGEN; mean of two experiments, control 205): 125%
- mortality of another rabbit so tested ([1]; intervenous injection 127.39 mg/kg): died
- reduction in accumulation of platelet thrombus ([1]; intervenous injection 127.39 mg/kg, equivalent to 0.01 molar concentrations in blood): about 30%

Compound: C[N+](C)(C)C [Tetramethyl-ammonium bisulfite]
- platelet aggregation, adosine diphosphate (ADP) as a stimulous (platelet rich plasma): inhibited

Compound: Sodium bisulfite
- coagulation of human plasma (human plasma): completely disrupted
- mortality (RATS; 2 days, rats 1 and 4): DIED
- FIRST DAY BLOOD FACTOR PT (RATS; rat 5): 27
- FIRST DAY BLOOD FACTOR PT, increase (RATS; rats 1-3): 26% increase and 24% increase and 28% increase
- FIBRINOGEN (mg%) (FIBRINOGEN; 0.01 mg/ml): 222 mg%
- FIBRINOGEN (mg%) (FIBRINOGEN; 0.05 mg/ml): 228 mg%
- FIBRINOGEN (mg%) (FIBRINOGEN; 0.1 mg/ml): 217 mg%
- FIBRINOGEN (mg%) (FIBRINOGEN; 0.5 mg/ml): 190 mg%
- FIBRINOGEN (mg%) (FIBRINOGEN; 1.0 mg/ml): 185 mg%
- FIBRINOGEN (mg%) (FIBRINOGEN; 5.0 mg/ml): 130 mg%
- reduces accumulation of platelet thrombus at the damaged vessel wall ([1]; intravenous injection 72.80 milligram per kilogram): The findings indicate that the active agent reduces accumulation of platelet thrombus at the damaged vessel wall by 70%.
- Platelet Accumulation II. at normal vessel wall % ([1]; intravenous injection 72.80 milligram per kilogram, rabbits A and B, control 0.03± 0.02): 0.08%
- Platelet Accumulation II. at normal vessel wall cpm/gm ([1]; intravenous injection 72.80 milligram per kilogram, rabbits A and B, control 72,140± 39,040): 98,611 cpm/gm and 83,066 cpm/gm
- Platelet Accumulation I. at damaged vessel wall cpm/gm ([1]; intravenous injection 72.80 milligram per kilogram, rabbits A and B, count per minute per gram dry weight of tissue, control 1,167,820± 21,310): 133,986 cpm/gm and 146,630 cpm/gm
- Platelet Accumulation I. at damaged vessel wall % ([1]; intravenous injection 72.80 milligram per kilogram, rabbits A and B, percentage of injected radioactivity per gram dry weight of tissue, control 0.44± 0.08): 0.11% and 0.15%
- Case IV: blood cholesterol value ([2]; after about 5 years of medication, before between 200 and 220 mg %): about 144 mg %
- Case IV: hypertension, arthritis, arrithmia, hemorrhoids, dispepsia, cyanotic fingers and toes, malaise, lassitude ([2]; man, Solutions A, B, C, or D orally, up to 20 drops per meal, within 2-3 months): all of the above identified conditions improved (except for diabetes)
- PT and PTT (effect in words) (rat plasma; rat plasma in vitro, 0.5 mg/ml): significantly prolong
- blood coagulation factors (rat plasma; rat plasma, compared with human plasma): not as sensitive
